{"source": "patent US8680133B2", "about": "“Alkyl indole-3-carbinol-derived antitumor agents” (The Ohio State University Research Foundation, priority 2009, dated 2014)", "key": {"[1]": {"system": "human tumor cell lines of the cancer screening panel", "experiment": "NCI 60 cell line screening, whole panel, comparison with OSU-A9", "format": "cell-based", "conditions": "OSU-A9 data not shown"}, "[2]": {"system": "OVCAR-5", "experiment": "NCI60 screening, Ovarian Cancer, OVCAR-5", "format": "cell-based, human"}}}
{"smiles": "Cc1ccc2c(c1)c(CO)cn2S(=O)(=O)c1ccc(Cl)c([N+](=O)[O-])c1", "note": "[OSU-A9M, [1-(4-chloro-3-nitro-benzenesulfonyl)-5-methyl-1H-indol-3-yl]-methanol]", "values": [{"measurement": "Potency in suppressing cancer cell growth compared with OSU-A9", "setting": "[1]", "value": "significantly higher potency"}, {"measurement": "TGI", "setting": "[2]", "value": "3.04E−6"}, {"measurement": "GI50", "setting": "[2]; Homo sapiens", "value": 1.68, "unit": "µM"}, {"measurement": "CC50", "setting": "[2]; Homo sapiens, read-out: LC50 (the source's name)", "value": 5.51, "unit": "µM"}, {"measurement": "Percent Growth", "setting": "[2]; Log10 Concentration −4.0", "value": "−100", "unit": "%"}, {"measurement": "Percent Growth", "setting": "[2]; Log10 Concentration −5.0", "value": "−100", "unit": "%"}, {"measurement": "Percent Growth", "setting": "[2]; Log10 Concentration −6.0", "value": 93, "unit": "%"}, {"measurement": "Percent Growth", "setting": "[2]; Log10 Concentration −7.0", "value": 92, "unit": "%"}, {"measurement": "Percent Growth", "setting": "[2]; Log10 Concentration −8.0", "value": 95, "unit": "%"}]}
